The source made the active and inactive calls. The calls are words filed in the database; no cut-off is given here.
How the values were obtained:
MDA-MB-231 [1] = test: Induction of apoptosis in human MDA-MB-231 cells assessed as late apoptotic cells at 5 uM measured for 48 hrs by Annexin V-FITC/PI staining based flow cytometry assay (reference value: 5.39%); type: functional
MDA-MB-231 [2] = test: Induction of apoptosis in human MDA-MB-231 cells assessed as decrease in Bcl-2 level upto 20 uM incubated for 48 hrs by Western blot analysis; type: functional, cell-based
HT-29 = test: Antiproliferative activity against human HT-29 cells assessed as cell growth inhibition incubated for 4 hrs by MTT assay; type: functional, cell-based; conditions: HT-29, 4 h
MDA-MB-231 [3] = test: Induction of apoptosis in human MDA-MB-231 cells assessed as necrotic cells at 5 uM measured for 48 hrs by Annexin V-FITC/PI staining based flow cytometry assay (reference value: 0.43%); type: functional
MDA-MB-231 [4] = test: Induction of apoptosis in human MDA-MB-231 cells assessed as late apoptotic cells at 13.5 uM measured for 48 hrs by Annexin V-FITC/PI staining based flow cytometry assay (reference value: 5.39%); type: functional
MDA-MB-231 [5] = test: Induction of cell cycle arrest in human MDA-MB-231 cells assessed as accumulation of cells at G2/M phase at 5 uM incubated for 48 hrs by propidium iodide staining based flow cytometry (reference value: 3.61%); type: functional
MDA-MB-231 [6] = test: Induction of cell cycle arrest in human MDA-MB-231 cells assessed as accumulation of cells at G0/G1 phase at 20 uM incubated for 48 hrs by propidium iodide staining based flow cytometry (reference value: 90.25%); type: functional
MDA-MB-231 [7] = test: Induction of apoptosis in human MDA-MB-231 cells assessed as early apoptotic cells at 5 uM measured for 48 hrs by Annexin V-FITC/PI staining based flow cytometry assay (reference value: 0.49%); type: functional
[8] = Selectivity index, ratio of IC50 for antiproliferative activity against human A549 cells to IC50 for antiproliferative activity against human MDA-MB-231 cells; type: functional
MDA-MB-231 [9] = test: Induction of cell cycle arrest in human MDA-MB-231 cells assessed as accumulation of cells at M1 phase at 5 uM incubated for 48 hrs by propidium iodide staining based flow cytometry (reference value: 7.1%); type: functional
MDA-MB-231 [10] = test: Induction of cell cycle arrest in human MDA-MB-231 cells assessed as accumulation of cells at S phase at 5 uM incubated for 48 hrs by propidium iodide staining based flow cytometry (reference value: 3.62%); type: functional
MDA-MB-231 [11] = test: Induction of apoptosis in human MDA-MB-231 cells assessed as upregulation of PARP level upto 20 uM incubated for 48 hrs by Western blot analysis; type: functional, cell-based
MDA-MB-231 [12] = test: Induction of cell cycle arrest in human MDA-MB-231 cells assessed as accumulation of cells at S phase at 10 uM incubated for 48 hrs by propidium iodide staining based flow cytometry (reference value: 3.62%); type: functional
MDA-MB-231 [13] = test: Induction of apoptosis in human MDA-MB-231 cells assessed as early apoptotic cells at 1 uM measured for 48 hrs by Annexin V-FITC/PI staining based flow cytometry assay (reference value: 0.49%); type: functional
MDA-MB-231 [14] = test: Induction of cell cycle arrest in human MDA-MB-231 cells assessed as accumulation of cells at G0/G1 phase at 5 uM incubated for 48 hrs by propidium iodide staining based flow cytometry (reference value: 90.25%); type: functional
MDA-MB-231 [15] = test: Antiproliferative activity against human MDA-MB-231 cells assessed as cell growth inhibition incubated for 4 hrs by MTT assay; type: functional, cell-based; conditions: MDA-MB-231, 4 h
MDA-MB-231 [16] = test: Induction of cell cycle arrest in human MDA-MB-231 cells assessed as accumulation of cells at M1 phase at 20 uM incubated for 48 hrs by propidium iodide staining based flow cytometry (reference value: 7.1%); type: functional
MDA-MB-231 [17] = test: Induction of cell cycle arrest in human MDA-MB-231 cells assessed as accumulation of cells at G2/M phase at 1 uM incubated for 48 hrs by propidium iodide staining based flow cytometry (reference value: 3.61%); type: functional
MDA-MB-231 [18] = test: Induction of cell cycle arrest in human MDA-MB-231 cells assessed as accumulation of cells at M1 phase at 10 uM incubated for 48 hrs by propidium iodide staining based flow cytometry (reference value: 7.1%); type: functional
MDA-MB-231 [19] = test: Induction of cell cycle arrest in human MDA-MB-231 cells assessed as accumulation of cells at M1 phase at 1 uM incubated for 48 hrs by propidium iodide staining based flow cytometry (reference value: 7.1%); type: functional
MDA-MB-231 [20] = test: Induction of apoptosis in human MDA-MB-231 cells assessed as early apoptotic cells at 10 uM measured for 48 hrs by Annexin V-FITC/PI staining based flow cytometry assay (reference value: 0.49%); type: functional
MDA-MB-231 [21] = test: Induction of cell cycle arrest in human MDA-MB-231 cells assessed as accumulation of cells at G2/M phase at 10 uM incubated for 48 hrs by propidium iodide staining based flow cytometry (reference value: 3.61%); type: functional
MDA-MB-231 [22] = test: Induction of cell cycle arrest in human MDA-MB-231 cells assessed as accumulation of cells at G2/M phase at 20 uM incubated for 48 hrs by propidium iodide staining based flow cytometry (reference value: 3.61%); type: functional
MDA-MB-231 [23] = test: Induction of apoptosis in human MDA-MB-231 cells assessed as upregulation of cleaved caspase-3 level upto 20 uM incubated for 48 hrs by Western blot analysis; type: functional, cell-based
MDA-MB-231 [24] = test: Induction of apoptosis in human MDA-MB-231 cells assessed as viable cells at 10 uM measured for 48 hrs by Annexin V-FITC/PI staining based flow cytometry assay (reference value: 93.7%); type: functional; conditions: read-out: Activity
MDA-MB-231 [25] = test: Induction of cell cycle arrest in human MDA-MB-231 cells assessed as accumulation of cells at S phase at 20 uM incubated for 48 hrs by propidium iodide staining based flow cytometry (reference value: 3.62%); type: functional
MDA-MB-231 [26] = test: Induction of apoptosis in human MDA-MB-231 cells assessed as viable cells at 5 uM measured for 48 hrs by Annexin V-FITC/PI staining based flow cytometry assay (reference value: 93.7%); type: functional; conditions: read-out: Activity
A549 = test: Antiproliferative activity against human A549 cells assessed as cell growth inhibition incubated for 4 hrs by MTT assay; type: functional, cell-based; conditions: A549, 4 h
MDA-MB-231 [27] = test: Induction of cell cycle arrest in human MDA-MB-231 cells assessed as accumulation of cells at G0/G1 phase at 1 uM incubated for 48 hrs by propidium iodide staining based flow cytometry (reference value: 90.25%); type: functional
MDA-MB-231 [28] = test: Inhibition of colony formation in human MDA-MB-231 cells upto 5 uM for 9 days by crystal violet staining based assay; type: functional, cell-based; conditions: time 9.0 day
MDA-MB-231 [29] = test: Induction of apoptosis in human MDA-MB-231 cells assessed as increase in ROS levels at 10 uM measured upto 48 hrs by DCFH-DA staining based flow cytometry assay; type: functional, cell-based
MDA-MB-231 [30] = test: Induction of apoptosis in human MDA-MB-231 cells assessed as necrotic cells at 1 uM measured for 48 hrs by Annexin V-FITC/PI staining based flow cytometry assay (reference value: 0.43%); type: functional
MDA-MB-231 [31] = test: Induction of apoptosis in human MDA-MB-231 cells assessed as necrotic cells at 10 uM measured for 48 hrs by Annexin V-FITC/PI staining based flow cytometry assay (reference value: 0.43%); type: functional
MDA-MB-231 [32] = test: Induction of cell cycle arrest in human MDA-MB-231 cells assessed as accumulation of cells at G0/G1 phase at 10 uM incubated for 48 hrs by propidium iodide staining based flow cytometry (reference value: 90.25%); type: functional
MDA-MB-231 [33] = test: Induction of apoptosis in human MDA-MB-231 cells assessed as viable cells at 1 uM measured for 48 hrs by Annexin V-FITC/PI staining based flow cytometry assay (reference value: 93.7%); type: functional; conditions: read-out: Activity
MDA-MB-231 [34] = test: Induction of apoptosis in human MDA-MB-231 cells assessed as increase in ROS levels at 10 uM measured at 12 hrs by DCFH-DA staining based flow cytometry assay; type: functional, cell-based
MDA-MB-231 [35] = test: Induction of cell cycle arrest in human MDA-MB-231 cells assessed as accumulation of cells at S phase at 1 uM incubated for 48 hrs by propidium iodide staining based flow cytometry (reference value: 3.62%); type: functional
MDA-MB-231 [36] = test: Induction of apoptosis in human MDA-MB-231 cells assessed as late apoptotic cells at 1 uM measured for 48 hrs by Annexin V-FITC/PI staining based flow cytometry assay (reference value: 5.39%); type: functional
MDA-MB-231 [37] = test: Induction of apoptosis in human MDA-MB-231 cells assessed as increase in Bax level upto 20 uM incubated for 48 hrs by Western blot analysis; type: functional, cell-based
[38] = Selectivity index, ratio of IC50 for antiproliferative activity against human HT-29 cells to IC50 for antiproliferative activity against human MDA-MB-231 cells; type: functional

With `COc1ccccc1/C=C/C(=O)NCCNC(=O)[C@H]1CC[C@H]2[C@@H]3CCC4=CC(=O)CC[C@]4(C)[C@H]3CC[C@]12C` the Activity (MDA-MB-231 [1]) was 4.35%, the Activity (MDA-MB-231 [2]) was “Active” and the IC50 (HT-29) was 11.7 µM. For the same compound, the Activity (MDA-MB-231 [3]) was 0.16%, the Activity (MDA-MB-231 [4]) was 13.5% and the Activity (MDA-MB-231 [5]) was 12.25%. For the same compound, the Activity (MDA-MB-231 [6]) was 47.17%, the Activity (MDA-MB-231 [7]) was 17.1% and the “Ratio IC50” value [8] was 73.5. For the same compound, the Activity (MDA-MB-231 [9]) was 16%, the Activity (MDA-MB-231 [10]) was 15.23% and the Activity (MDA-MB-231 [11]) was “Active”. The Activity (MDA-MB-231 [12]) was 28.07%, the Activity (MDA-MB-231 [13]) was 9.24% and the Activity (MDA-MB-231 [14]) was 69.83%. For the same compound, the IC50 (MDA-MB-231 [15]) was 0.42 µM, the Activity (MDA-MB-231 [16]) was 37.4% and the Activity (MDA-MB-231 [17]) was 12.11%. The Activity (MDA-MB-231 [18]) was 22.8%, the Activity (MDA-MB-231 [19]) was 13.8% and the Activity (MDA-MB-231 [20]) was 45%. For the same compound, the Activity (MDA-MB-231 [21]) was 13.15%, the Activity (MDA-MB-231 [22]) was 10.01% and the Activity (MDA-MB-231 [23]) was “Active”. For the same compound, the viability at 10 µM (MDA-MB-231 [24]) was 41.1%, the Activity (MDA-MB-231 [25]) was 37.22% and the viability at 5 µM (MDA-MB-231 [26]) was 78.3%. The IC50 (A549) was 30.9 µM, the Activity (MDA-MB-231 [27]) was 84.13% and the inhibition (MDA-MB-231 [28]) was “Active”. The Activity (MDA-MB-231 [29]) was “Active”, the Activity (MDA-MB-231 [30]) was 0.16% and the Activity (MDA-MB-231 [31]) was 0.4%. For the same compound, the Activity (MDA-MB-231 [32]) was 55.27%, the viability at 1 µM (MDA-MB-231 [33]) was 84% and the Activity (MDA-MB-231 [34]) was “Active”. The Activity (MDA-MB-231 [35]) was 2.52%, the Activity (MDA-MB-231 [36]) was 6.63% and the Activity (MDA-MB-231 [37]) was “Active”. For the same compound, the “Ratio IC50” value [38] was 22.5.
